Values after ≈ are worked out from the molar mass of the structure shown. Where a SMILES comes first, the peptide text is derived from it. Bridges are numbered along the chain shown (N, C = ends). Roman numbers before positions name the chains, in order. [ ]: non-standard residue; d: D form. Tle = CC(C)(C)[C@H](N)C(=O)O; dDab = NCC[C@@H](N)C(=O)O; hSer = N[C@@H](CCO)C(=O)O; Dab = NCC[C@H](N)C(=O)O
Legend:
[1] = test system: E. coli O111:B4 LPS stimulated RAW264.7 macrophages; test: Nitric oxide inhibition assay (Griess), E. coli O111:B4 LPS; assay type: cell-based; details: 0–5 μM peptide
Method: (§1) Figure 3 Nitric oxide inhibition in LPS stimulated RAW264.7 by peptide antibiotics. RAW264.7 cells were stimulated with smooth type LPSs (A) E. coli O111:B4 LPS and (B) P. aeruginosa LPS and rough type LPS (C) E. coli K-12 LPS in the presence of different concentrations of peptides: CPA, murepavadin, MHM, PMB, and PMBN. NO production was measured by Griess assay. Shown are the mean ± SEM of three independent experiments. (D) Schematic diagram of the general structure of lipopolysaccharides. It consists of three main subunits: lipid A, the core region, and the O-antigen. Lipid A and the core-region form rough (R)-type LPS. Lipid A, the core-region, and the O-antigen together form smooth (S)-type LPS.
(§2) RAW264.7 cells were seeded (5 × 10^4 cells/well) in a 96-well plate and left at 37 °C for overnight adherence. Then, cells were stimulated with […] types of LPS: 20 ng/mL LPS originating from E. coli O111:B4 (LPS-EB, InvivoGen), 50 ng/mL LPS from P. aeruginosa (PA-10 LPS, Sigma -Aldrich), and 5 ng/mL LPS from E. coli K-12 (LPS-EK, InvivoGen) in the presence of 0–5 μM peptides in DMEM for 24 h. After incubation, the nitrite content (corresponding to nitric oxide produced but quickly oxidized in watery solutions to nitrite) in the supernatant was measured using the Griess assay.[28]

[2] = test system: Escherichia coli (clinical isolate); assay type: cell-based
Method: (§3) Figure 2 Determination of MBC values for (A) E. coli and (B) P. aeruginosa. Surviving bacterial colonies were detected after incubation with tested peptides for 3 h in MHB.
(§4) Bacterial strains used in this study were clinical isolates of Escherichia coli and Pseudomonas aeruginosa provided by Utrecht University Medical Center, Department of Medical Microbiology, Utrecht, The Netherlands. Both strains were cultured in Mueller Hinton broth (MHB) (Millipore, Sigma-Aldrich).
(§5) Logarithmic growth phase of an o/n bacterial culture was obtained by diluting it 1:100 in MHB and then incubating it for 3 h at 37 °C while shaking. After that, the OD620 of the bacterial suspension was measured and the bacterial solution was diluted to 2 × 10^6 colony forming units/mL (CFU/mL). Bacteria and peptides in MHB were mixed 1:1 (v/v) and incubated for 3 h at 37 °C in a polypropylene round-bottom 96 well-plate (Corning Costar, Glendale, AZ). Subsequently, 10-fold dilutions were made and plated out on Tryptone Soy Agar (TSA) plates and incubated for 24 h at 37 °C to count colonies.

[3] = test system: Pseudomonas aeruginosa (clinical isolate); assay type: cell-based; details: 3 h
Method: as §3, §4, §5

[4] = test system: E. coli K-12 LPS stimulated RAW264.7 macrophages; test: Nitric oxide inhibition assay (Griess), E. coli K-12 LPS; assay type: cell-based; details: 0–5 μM peptide
Method: as §1, §2

[5] = test system: RAW264.7 macrophages stimulated with treated P. aeruginosa; test: Silent killing: stimulation of macrophages with nonviable bacteria (TNF-α ELISA); assay type: cell-based; details: bacteria 1 × 10^6 CFU/mL treated with 20 μM peptide 1 h at 37 °C, RAW264.7 2 h, three independent experiments
Method: Figure 7 (A) Determination of macrophage activation in response to viable and nonviable bacteria. P. aeruginosa was treated with gentamicin, heat treatment, CATH-2 (control), CPA, murepavadin, MHM, PMB, or PMBN (20 μM of each) and subsequently added to RAW264.7 macrophages. Production of TNF-α was measured using ELISA after 2 h of treatment. (B) Viability of P. aeruginosa after treatment was checked by plating on TSA plates. Data is plotted as the mean ± SEM of three independent experiments. Significant differences were determined by ordinary one-way ANOVA (Tukey’s multiple comparison test).
RAW264.7 cells were seeded (7.5 × 10^4 cells/well) as described above. P. aeruginosa (diluted to 1 × 10^6 CFU/mL in DMEM) was treated separately with heat (1 h at 90 °C), 1 mg/mL gentamicin (1 h at 37 °C), 20 μM CPA (1 h at 37 °C), 20 μM PMB (1 h at 37 °C), 20 μM murepavadin (1 h at 37 °C), 20 μM MHM (1 h at 37 °C), 20 μM CATH-2 (1 h at 37 °C), and DMEM only (untreated sample) (1 h at 4 °C). After treatment, the bacteria were added to the RAW264.7 cells for 2 h of incubation at 37 °C. After that, TNF-α production was determined in the supernatant by ELISA.

[6] = test system: E. coli O111:B4 LPS stimulated RAW264.7 macrophages; test: TNF-α release ELISA in LPS stimulated macrophages; assay type: cell-based; details: 20 ng/mL E. coli O111:B4 LPS, 24 h
Method: (§6) Figure 4 Peptides modulation of cytokine expression in RAW264.7 cells stimulated with LPS. RAW macrophages were stimulated with 20 ng/mL E. coli LPS in the presence of different concentrations of peptide antibiotics. (A) TNF-α and (B) IL-10 release was measured by ELISA in duplicates. Shown are the mean ± SEM of three independent experiments.
as §2
(§7) A sandwich ELISA was used to measure TNF-α and IL-10 concentrations in the supernatant of the same treatment (24 h) used for nitrite measurement, using ELISA Duoset kits (R&D systems, Minneapolis, MN) according to the manufacturer’s protocol.

[7] = test system: P. aeruginosa 10 LPS stimulated RAW264.7 macrophages; test: Nitric oxide inhibition assay (Griess), P. aeruginosa 10 LPS; assay type: cell-based; details: 0–5 μM peptide
Method: as §1, §2

[8] = test system: E. coli O111:B4 LPS; test: Isothermal titration calorimetry (ITC) of LPS binding; details: 30 μM peptide, 200 μM LPS in 50% PBS, 37 °C, representative of two measurements
Method: Figure 6 (A) Binding profile of LPS and the peptides using ITC. Binding signatures (ΔG, ΔH. and −TΔS) plotted for binding events of LPS with peptides. (B) Spectra of the interaction between LPS and peptides. Murepavadin, PMB, MHM, PMBN, and CPA (30 μM) were titrated against 200 μM E. coli O111:B4 LPS, and heat rates were recorded. Shown is a representative of two measurements.
ITC measurements were performed in a low volume NanoITC (TA Instruments-Waters LLC, New Castle, DE). Two hundred micromolar LPS (from E. coli O111:B4) was prepared in 50% PBS. Peptides of 30 μM concentration were prepared in identical buffer. Three hundred microliters of the peptide solution was added to the chamber (chamber volume is 169 μL, so the rest of the volume flows out and rests around the chamber), and 50 μL of LPS was added to the syringe. At 37 °C, 2 μL of LPS solution was injected into the chamber every 300 s, except the first injection, which consists of 0.96 μL. The experiments were performed at 37 °C while stirring at 300 rpm. The data was analyzed with the NanoAnalyze Software (TA Instruments, Asse, Belgium).

[9] = test system: E. coli O111:B4 LPS stimulated RAW264.7 macrophages; test: IL-10 release ELISA in LPS stimulated macrophages; assay type: cell-based; details: 20 ng/mL E. coli O111:B4 LPS, 24 h
Method: as §6, §2, §7

Structure (SMILES): CC(C)C[C@@H]1NC(=O)[C@@H](Cc2ccccc2)NC(=O)[C@H](CCN)NC(=O)[C@@H](NC(=O)[C@H](CCN)NC(=O)[C@@H](NC(=O)[C@H](CCN)NC(=O)CC[C@@H]2NC(=O)[C@H](CCN)NC(=O)[C@H](Cc3ccc(O)cc3)NC(=O)[C@H]([C@@H](C)O)NC(=O)[C@H](C(C)C)NC(=O)[C@@H]3CCCN3C(=O)[C@@H](C)NC(=O)[C@H](CO)NC(=O)[C@H](C)NC(=O)[C@H](C(C)(C)C)NC(=O)[C@H](CCO)NC(=O)[C@H](Cc3c[nH]c4ccccc34)NC(=O)[C@H](CCO)NC(=O)[C@@H](CCN)NC2=O)[C@@H](C)O)CCNC(=O)[C@H]([C@@H](C)O)NC(=O)[C@H](CCN)NC(=O)[C@H](CCN)NC1=O [CPA] (I: cyclo([dDab][hSer]W[hSer][Tle]AS[dA]PVTY[Dab]E) / II: [Dab]T[Dab][Dab][Dab][dF]L[Dab][Dab]T; amide I:14-II:N (inferred); lactam II:4-II:C (inferred); ring closure inferred)
- concentration that completely neutralized E. coli O111:B4 LPS (nitric oxide production) ([1]; 20 ng/mL LPS, 24 h in DMEM, Griess assay): 20 nM
- inhibition of LPS-induced nitric oxide production (in words) ([1]; smooth E. coli O111:B4 LPS 20 ng/mL, 24 h): dose-dependently active
- decrease in viable E. coli ([2]; at 1.25 μM peptide, from starting density of 10^6 CFU/mL, 3 h in MHB): 2 log
- MBC (complete killing) against E. coli ([2]; clinical isolate, 3 h): 10 µM (≈ 25.7 µg/mL)
- MBC (complete killing) against P. aeruginosa [3]: 2.5 µM (≈ 6.41 µg/mL)
- concentration that neutralized E. coli K-12 LPS (nitric oxide production) ([4]; 5 ng/mL rough LPS, 24 h in DMEM, Griess assay): 5 µM
- inhibition of LPS-induced nitric oxide production (in words) ([4]; rough E. coli K-12 LPS 5 ng/mL, 24 h): dose-dependently active
- macrophage activation (TNF-α) by peptide-treated P. aeruginosa compared to viable untreated bacteria [5]: significantly reduced immune response
- inhibition of TNF-α release (in words) [6]: sharply decreased the TNF-α and IL-10 release by RAW264.7 macrophages at a concentration of 5 nM
- concentration that almost completely neutralized P. aeruginosa 10 LPS (nitric oxide production) ([7]; 50 ng/mL LPS, 24 h in DMEM, Griess assay): 20 nM
- inhibition of LPS-induced nitric oxide production (in words) ([7]; smooth P. aeruginosa 10 LPS 50 ng/mL, 24 h): dose-dependently active
- Kd [8]: 7.8 µM
- inhibition of IL-10 release (in words) [9]: sharply decreased the TNF-α and IL-10 release by RAW264.7 macrophages at a concentration of 5 nM
